Test results published in ChEMBL document CHEMBL1201862, “PubChem BioAssay data set” (2004).
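Tested at 5 concentrations; 48 h exposure; 96-well plates; endpoints linearly interpolated, else capped at highest concentration. Abbreviation: GI50, concentration required for 50% inhibition of growth.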 Active and inactive are the calls of the source. No stated cut-off is given here; in the data, active = GI50 up to about 1.1 µM and inactive = higher.

Tests used:
Test in all cases: NCI-60 cell line screen, 48 h
786-0 = test system: 786-0
A498 = test system: A498
A549 = test system: A549
ACHN = test system: ACHN
COLO 205 = test system: COLO 205
DLD-1 = test system: DLD-1
DMS-114 = test system: DMS-114
DMS-273 = test system: DMS-273
EKVX = test system: EKVX
HCC 2998 = test system: HCC 2998
HCT-116 = test system: HCT-116
HCT-15 = test system: HCT-15
HL-60 = test system: HL-60
HOP-18 = test system: HOP-18
HOP-62 = test system: HOP-62
HOP-92 = test system: HOP-92
HT-29 = test system: HT-29
IGROV-1 = test system: IGROV-1
K562 = test system: K562
KM-20L2 = test system: KM-20L2
KM12 = test system: KM12
LOX IMVI = test system: LOX IMVI
LXFL 529 = test system: LXFL 529
M14 = test system: M14
M19-MEL = test system: M19-MEL
Malme-3M = test system: Malme-3M
NCI-H23 = test system: NCI-H23
NCI-H460 = test system: NCI-H460
NCI-H522 = test system: NCI-H522
OVCAR-3 = test system: OVCAR-3
OVCAR-4 = test system: OVCAR-4
OVCAR-5 = test system: OVCAR-5
OVCAR-8 = test system: OVCAR-8
RPMI-8226 = test system: RPMI-8226
RXF 393 = test system: RXF 393
SF-268 = test system: SF-268
SF-295 = test system: SF-295
SF-539 = test system: SF-539
SK-MEL-28 = test system: SK-MEL-28
SK-MEL-2 = test system: SK-MEL-2
SK-MEL-5 = test system: SK-MEL-5
SK-OV-3 = test system: SK-OV-3
SN12C = test system: SN12C
SNB-19 = test system: SNB-19
SNB-75 = test system: SNB-75
SNB-78 = test system: SNB-78
SR = test system: SR
SW-620 = test system: SW-620
TK-10 = test system: TK-10
U-251 = test system: U-251
UACC-257 = test system: UACC-257
UACC-62 = test system: UACC-62
UO-31 = test system: UO-31
BT-549 = test system: BT-549
CAKI-1 = test system: CAKI-1
CCRF-CEM = test system: CCRF-CEM
DU-145 = test system: DU-145
Hs-578T = test system: Hs-578T
MCF7 = test system: MCF7
MDA-MB-231 = test system: MDA-MB-231
MDA-MB-435 = test system: MDA-MB-435
MDA-N = test system: MDA-N
MOLT-4 = test system: MOLT-4
NCI-H226 = test system: NCI-H226
NCI/ADR-RES = test system: NCI/ADR-RES
PC-3 = test system: PC-3
T47D = test system: T47D

With `CCOC(=O)NC(=O)c1cn(CCN2CCN(C(=O)NCCCCCCNC(=O)N3CCN(CCn4cc(C(=O)NC(=O)OCC)c(=O)n(CCN(CC)CC)c4=O)CC3)CC2)c(=O)n(CCC(CC)CC)c1=O` the GI50 (786-0) was > 100 µM (inactive), the GI50 (A498) was > 100 µM (inactive) and the GI50 (A549) was > 100 µM (inactive). The GI50 (ACHN) was > 100 µM (inactive), the GI50 (COLO 205) was > 100 µM (inactive) and the GI50 (DLD-1) was > 100 µM (inactive). For the same molecule, the GI50 (DMS-114) was > 100 µM (inactive), the GI50 (DMS-273) was > 100 µM (inactive) and the GI50 (EKVX) was > 100 µM (inactive). The GI50 (HCC 2998) was > 100 µM (inactive), the GI50 (HCT-116) was > 100 µM (inactive) and the GI50 (HCT-15) was over 100 µM. The GI50 (HL-60) was > 100 µM (inactive), the GI50 (HOP-18) was > 100 µM (inactive) and the GI50 (HOP-62) was > 100 µM (inactive). The GI50 (HOP-92) was > 100 µM (inactive), the GI50 (HT-29) was > 100 µM (inactive) and the GI50 (IGROV-1) was > 100 µM (inactive). The GI50 (K562) was > 100 µM (inactive), the GI50 (KM-20L2) was > 100 µM (inactive) and the GI50 (KM12) was > 100 µM (inactive). For the same molecule, the GI50 (LOX IMVI) was > 100 µM (inactive), the GI50 (LXFL 529) was > 100 µM (inactive) and the GI50 (M14) was > 100 µM (inactive). For the same molecule, the GI50 (M19-MEL) was > 100 µM (inactive), the GI50 (Malme-3M) was > 100 µM (inactive) and the GI50 (NCI-H23) was > 100 µM (inactive). The GI50 (NCI-H460) was > 100 µM (inactive), the GI50 (NCI-H522) was > 100 µM (inactive) and the GI50 (OVCAR-3) was > 100 µM (inactive). For the same molecule, the GI50 (OVCAR-4) was > 100 µM (inactive), the GI50 (OVCAR-5) was > 100 µM (inactive) and the GI50 (OVCAR-8) was > 100 µM (inactive). The GI50 (RPMI-8226) was > 100 µM (inactive), the GI50 (RXF 393) was > 100 µM (inactive) and the GI50 (SF-268) was > 100 µM (inactive). For the same molecule, the GI50 (SF-295) was > 100 µM (inactive), the GI50 (SF-539) was > 100 µM (inactive) and the GI50 (SK-MEL-28) was > 100 µM (inactive). For the same molecule, the GI50 (SK-MEL-2) was > 100 µM (inactive), the GI50 (SK-MEL-5) was > 100 µM (inactive) and the GI50 (SK-OV-3) was > 100 µM (inactive). For the same molecule, the GI50 (SN12C) was > 100 µM (inactive), the GI50 (SNB-19) was > 100 µM (inactive) and the GI50 (SNB-75) was > 100 µM (inactive). For the same molecule, the GI50 (SNB-78) was > 100 µM (inactive), the GI50 (SR) was > 100 µM (inactive) and the GI50 (SW-620) was > 100 µM (inactive). For the same molecule, the GI50 (TK-10) was > 100 µM (inactive), the GI50 (U-251) was > 100 µM (inactive) and the GI50 (UACC-257) was > 100 µM (inactive). The GI50 (UACC-62) was > 100 µM (inactive) and the GI50 (UO-31) was > 100 µM (inactive).
In the case of `Cc1ccc(C(=O)N(C2CCCCC2)C2CCCCC2)cc1/N=N/N(C)C`, the GI50 (786-0) is reported as 15.3 µM (inactive), the GI50 (A549) is reported as 13.7 µM (inactive) and the GI50 (ACHN) is reported as 8.83 µM (inactive). The GI50 (BT-549) was 13.9 µM (inactive), the GI50 (CAKI-1) was 12.9 µM (inactive) and the GI50 (CCRF-CEM) was 14.9 µM (inactive). The GI50 (COLO 205) was 17.7 µM (inactive), the GI50 (DLD-1) was 14.7 µM (inactive) and the GI50 (DMS-273) was 17.1 µM (inactive). The GI50 (DU-145) was > 10 µM (inactive), the GI50 (EKVX) was 16.3 µM (inactive) and the GI50 (HCC 2998) was 15.7 µM (inactive). The GI50 (HCT-116) was 5.51 µM (inactive), the GI50 (HCT-15) was 14.1 µM and the GI50 (HL-60) was 6.07 µM (inactive). For the same molecule, the GI50 (HOP-62) was 12.3 µM (inactive), the GI50 (HOP-92) was 11 µM (inactive) and the GI50 (HT-29) was 6.08 µM (inactive). For the same molecule, the GI50 (Hs-578T) was 21.3 µM (inactive), the GI50 (IGROV-1) was 15.6 µM (inactive) and the GI50 (K562) was 8.28 µM (inactive). The GI50 (KM12) was 6.71 µM (inactive), the GI50 (LOX IMVI) was 15.8 µM (inactive) and the GI50 (LXFL 529) was 14.6 µM (inactive). For the same molecule, the GI50 (M14) was 17.6 µM (inactive), the GI50 (M19-MEL) was 19.1 µM (inactive) and the GI50 (MCF7) was 14.9 µM (inactive). For the same molecule, the GI50 (MDA-MB-231) was 12.6 µM (inactive), the GI50 (MDA-MB-435) was 16.2 µM (inactive) and the GI50 (MDA-N) was 15 µM (inactive). The GI50 (MOLT-4) was 14.4 µM (inactive), the GI50 (Malme-3M) was 16.2 µM (inactive) and the GI50 (NCI-H226) was 19.7 µM (inactive). For the same molecule, the GI50 (NCI-H23) was 11.3 µM (inactive), the GI50 (NCI-H460) was 15.1 µM (inactive) and the GI50 (NCI-H522) was 6.01 µM (inactive). For the same molecule, the GI50 (NCI/ADR-RES) was 19.5 µM (inactive), the GI50 (OVCAR-3) was 6.34 µM (inactive) and the GI50 (OVCAR-4) was 10.4 µM (inactive). The GI50 (OVCAR-5) was 19 µM (inactive), the GI50 (OVCAR-8) was 8.81 µM (inactive) and the GI50 (PC-3) was 10.4 µM (inactive). The GI50 (RPMI-8226) was 8.75 µM (inactive), the GI50 (SF-268) was 10.8 µM (inactive) and the GI50 (SF-295) was 11.4 µM (inactive). For the same molecule, the GI50 (SF-539) was 19.5 µM (inactive), the GI50 (SK-MEL-28) was 7.14 µM (inactive) and the GI50 (SK-MEL-2) was 2.76 µM (inactive). For the same molecule, the GI50 (SK-MEL-5) was 14.3 µM (inactive), the GI50 (SK-OV-3) was 17.8 µM (inactive) and the GI50 (SN12C) was 15.4 µM (inactive). The GI50 (SNB-19) was 12.6 µM (inactive), the GI50 (SNB-78) was 15.8 µM (inactive) and the GI50 (SR) was 18.2 µM (inactive). The GI50 (SW-620) was 8.83 µM (inactive), the GI50 (T47D) was 18 µM (inactive) and the GI50 (TK-10) was 9.82 µM (inactive). For the same molecule, the GI50 (U-251) was 18.4 µM (inactive), the GI50 (UACC-257) was 12.9 µM (inactive) and the GI50 (UACC-62) was 7.78 µM (inactive). The GI50 (UO-31) was 12.8 µM (inactive).
